{
  "source": "BigSolDB 2.1",
  "details": "in n-octanol",
  "data": [
    {"compound": "COc1ccccc1-n1c(=S)sc2c(=O)n(CC(=O)NCC(O)(Cn3cncn3)c3ccc(F)cc3F)cnc21", "note": "(stereo not given)", "values": [
      {"measurement": "solubility (mole fraction)", "setting": "293.15 K", "result": 0.00182},
      {"measurement": "solubility (mole fraction)", "setting": "298.15 K", "result": 0.00212},
      {"measurement": "solubility (mole fraction)", "setting": "303.15 K", "result": 0.00253},
      {"measurement": "solubility (mole fraction)", "setting": "308.15 K", "result": 0.00297},
      {"measurement": "solubility (mole fraction)", "setting": "313.15 K", "result": 0.00348}
    ]},
    {"compound": "Cc1ccc(-n2c(=S)sc3c(=O)n(CC(=O)NCC(O)(Cn4cncn4)c4ccc(F)cc4F)cnc32)cc1", "note": "(stereo not given)", "values": [
      {"measurement": "solubility (mole fraction)", "setting": "293.15 K", "result": 0.000299},
      {"measurement": "solubility (mole fraction)", "setting": "298.15 K", "result": 0.000368},
      {"measurement": "solubility (mole fraction)", "setting": "303.15 K", "result": 0.000444},
      {"measurement": "solubility (mole fraction)", "setting": "308.15 K", "result": 0.000531},
      {"measurement": "solubility (mole fraction)", "setting": "313.15 K", "result": 0.000638}
    ]},
    {"compound": "O=C(Cn1cnc2c(sc(=S)n2-c2ccc(F)cc2)c1=O)NCC(O)(Cn1cncn1)c1ccc(F)cc1F", "note": "(stereo not given)", "values": [
      {"measurement": "solubility (mole fraction)", "setting": "293.15 K", "result": 0.000335},
      {"measurement": "solubility (mole fraction)", "setting": "298.15 K", "result": 0.000382},
      {"measurement": "solubility (mole fraction)", "setting": "303.15 K", "result": 0.000439},
      {"measurement": "solubility (mole fraction)", "setting": "308.15 K", "result": 0.000495},
      {"measurement": "solubility (mole fraction)", "setting": "313.15 K", "result": 0.000563}
    ]},
    {"compound": "O=C(Cn1cnc2c(sc(=S)n2-c2ccc(Cl)cc2)c1=O)NCC(O)(Cn1cncn1)c1ccc(F)cc1F", "note": "(stereo not given)", "values": [
      {"measurement": "solubility (mole fraction)", "setting": "293.15 K", "result": 0.000548},
      {"measurement": "solubility (mole fraction)", "setting": "298.15 K", "result": 0.000617},
      {"measurement": "solubility (mole fraction)", "setting": "303.15 K", "result": 0.000699},
      {"measurement": "solubility (mole fraction)", "setting": "308.15 K", "result": 0.000773},
      {"measurement": "solubility (mole fraction)", "setting": "313.15 K", "result": 0.000861}
    ]}
  ]
}
